The source of these data is PMC6599079 (Nature Communications, 2019).

Where two headings read alike, the source gives them in different places. Square brackets hold non-standard residues; d marks the D form. Ends that are not written are not given here. Met(O) = CS(=O)CC[C@H](N)C(=O)O

In one experiment the target is T1, H-2D^b (Mus musculus, UniProt P01899).
T1 sequence (P01899 25-362): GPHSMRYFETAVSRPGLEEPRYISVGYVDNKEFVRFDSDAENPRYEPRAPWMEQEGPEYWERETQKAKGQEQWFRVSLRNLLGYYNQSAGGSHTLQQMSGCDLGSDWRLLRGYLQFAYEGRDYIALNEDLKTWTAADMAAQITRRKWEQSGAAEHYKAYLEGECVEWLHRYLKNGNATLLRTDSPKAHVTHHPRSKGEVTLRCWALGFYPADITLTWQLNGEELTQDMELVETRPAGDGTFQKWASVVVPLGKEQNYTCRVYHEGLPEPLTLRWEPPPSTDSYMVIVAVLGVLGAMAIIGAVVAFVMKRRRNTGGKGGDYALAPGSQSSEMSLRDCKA
T1 sequence (P01887 21-119 partner): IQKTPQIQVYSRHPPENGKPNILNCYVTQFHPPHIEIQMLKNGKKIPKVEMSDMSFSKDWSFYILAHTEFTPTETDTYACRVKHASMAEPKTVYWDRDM
The experiment in a line: biochemical. In kind it is binding.

The next experiment concerns the target T2, H-2K^b (Mus musculus, UniProt P01901).
T2 sequence (P01901 22-369): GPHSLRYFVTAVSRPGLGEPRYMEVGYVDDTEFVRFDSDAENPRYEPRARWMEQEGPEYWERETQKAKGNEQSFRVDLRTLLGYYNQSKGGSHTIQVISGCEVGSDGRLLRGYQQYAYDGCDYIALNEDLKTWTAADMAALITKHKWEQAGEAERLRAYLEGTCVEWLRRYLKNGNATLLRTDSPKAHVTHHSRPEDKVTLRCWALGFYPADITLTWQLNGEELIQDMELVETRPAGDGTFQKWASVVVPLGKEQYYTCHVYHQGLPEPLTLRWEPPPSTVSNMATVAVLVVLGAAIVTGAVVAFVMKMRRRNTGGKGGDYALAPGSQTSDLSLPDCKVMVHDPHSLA
T2 sequence (P01887 21-119 partner): T1 sequence (P01887 21-119 partner)
Put plainly: biochemical. It is filed as binding.

The test system of a further experiment is splenic CD8^+ T cells. It is filed as in vivo, C57BL/6 mice. The note with it: for IFNg#: spleen; for CTL response, ICS: file clean_CTLresponse_ICS_new, tissue not given.
The target in experiment [1] is H-2b MHC class I (allele not given). Put plainly: Classical competition assay of peptide binding to purified MHC; restricting allele not printed in the epitope label of this file. More on the design: species or system mouse. The settings on record: epitope label without allele; file clean_file9_IC50; unit inferred.
Where [2] appears, read: Measured IC50 of each peptide, H-2D^b.
Setting [3] is: Measured IC50 of each peptide, H-2K^b.
[4] abbreviates: epitopes labelled Kb, file clean_file9_IC50, unit inferred, read-out: IC50.
[5] abbreviates: 1st EXP, number of IFNg+ CD8 cells = IFNg% (w/o background) x CD8# 5103400, replicate Mouse 2.
The mark [6] stands for this setting: 1st EXP, number of IFNg+ CD8 cells = IFNg% (w/o background) x CD8# 5464800, replicate Mouse 3.
[7] abbreviates: 1st EXP, number of IFNg+ CD8 cells = IFNg% (w/o background) x CD8# 5668200, replicate Mouse 4.
Setting [8] is: 1st EXP, number of IFNg+ CD8 cells = IFNg% (w/o background) x CD8# 5724000, replicate Mouse 5.
Setting [9] is: 1st EXP, number of IFNg+ CD8 cells = IFNg% (w/o background) x CD8# 6077000, replicate Mouse 1.
Where [10] appears, read: 2nd EXP, number of IFNg+ CD8 cells per spleen (CD8# 2541000), Mouse 5.
Setting [11] is: 2nd EXP, number of IFNg+ CD8 cells per spleen (CD8# 2956300), Mouse 4.
Setting [12] is: 2nd EXP, number of IFNg+ CD8 cells per spleen (CD8# 3816800), Mouse 1.
Setting [13] is: 2nd EXP, number of IFNg+ CD8 cells per spleen (CD8# 4765200), Mouse 3.
Where [14] appears, read: 2nd EXP, number of IFNg+ CD8 cells per spleen (CD8# 5219500), Mouse 2.
[15] abbreviates: 2nd EXP, number of IFNg+ CD8 cells per spleen (CD8# 5392600), Mouse 6.

For orientation: IC50 means the concentration that inhibits the measured activity by half. Consider KNMEYDAV [PB1_653–660], for which the values for the IC50 against H-2D^b (setting [2]) and at H-2K^b (setting [3]) were above 40000 nM and 156 nM, respectively.

For the compound SSLENFRAYV [PA224–233], the half-maximal inhibitory concentration (IC50) against H-2D^b (setting [2]) turned out to be 0.16 nM; against H-2K^b (setting [3]) it was 38 nM.

Turning to VTVTHSVNL [HA41–49], the IC50 at H-2D^b (setting [2]) stood at 872 nM; against H-2K^b (setting [3]), 7.9 nM.

Consider VYIEVLHL [PB2_227–234], for which the figures for the IC50 on H-2D^b (setting [2]) and against H-2K^b (setting [3]) were 20900 nM and 2.8 nM, respectively.

With SQLKNNAKEI [HA467–476], the concentration for half-maximal inhibition (IC50) against H-2D^b (setting [2]) is 173 nM; against H-2K^b (setting [3]), above 40000 nM.

On to SGPDNGAVAVL [NA181–191], for which the IC50 against H-2D^b (setting [2]) was 64 nM; against H-2K^b (setting [3]) it was 585 nM.

In the case of SSYRRPVGI [PB1-703-711Kb], the IC50 on H-2K^b (setting [4]) stood at 1.94 nM.

SSLENFRAYV [PA-224-233Db]: the 50% inhibitory concentration (IC50) on H-2D^b (epitopes labelled Db, file clean_file9_IC50, unit inferred, read-out: IC50) is 0.155 nM.

In the case of RTFSFQLI [NS2_114–121], the IC50 was above 40000 nM against H-2D^b (setting [2]) and 4.7 nM against H-2K^b (setting [3]).

`CSCC[C@H](NC(=O)[C@@H](NC(=O)[C@H](CCC(=O)O)NC(=O)[C@H](CCSC)NC(=O)[C@H](CC(N)=O)NC(=O)[C@H](CCC(=O)O)NC(=O)[C@H](CC(N)=O)NC(=O)[C@H](CO)NC(=O)[C@H](C)N)[C@@H](C)O)C(=O)O` [NP366–374]: the half-maximal inhibitory concentration (IC50) was 18 nM against H-2D^b (setting [2]) and above 40000 nM on H-2K^b (setting [3]).

Take 19 (CFKFDHL) [compound 19]: the “IFNg#” value with splenic CD8^+ T cells (setting [5]) is on record as 34310.2; in the experiment on splenic CD8^+ T cells (setting [6]), 27968.8; in the experiment on splenic CD8^+ T cells (setting [7]), 21326.6; in the experiment on splenic CD8^+ T cells (setting [8]), 46581.9; with splenic CD8^+ T cells (setting [9]), 28197.3; in the experiment on splenic CD8^+ T cells (setting [10]), 17050.1. The “IFNg#” value in the experiment with splenic CD8^+ T cells (setting [11]) is recorded as 2143.61; in the experiment on splenic CD8^+ T cells (setting [12]) it was 22289; in the experiment with splenic CD8^+ T cells (setting [13]), 7728.2; in the experiment on splenic CD8^+ T cells (setting [14]), 8361.64; in the experiment on splenic CD8^+ T cells (setting [15]), 5535.5.

Turning to `CC[C@H](C)[C@H](NC(=O)[C@H](CC(N)=O)NC(=O)[C@@H](N)CCSC)C(=O)N[C@@H](CCC(N)=O)C(=O)N[C@@H](Cc1ccccc1)C(=O)N[C@H](C(=O)N[C@@H](C)C(=O)N[C@H](C(=O)O)C(C)C)[C@@H](C)O` [HA402–409], the IC50 was 6180 nM against H-2D^b (setting [2]) and 3 nM on H-2K^b (setting [3]).

Take SSYRRPVGI [PB1_703–711]: the IC50 came out at 29000 nM at H-2D^b (setting [2]) and 1.9 nM against H-2K^b (setting [3]).

With YQNIHPVTI [HA308–316], the concentration for half-maximal inhibition (IC50) against H-2D^b (setting [2]) was 1970 nM; on H-2K^b (setting [3]) it was 1140 nM.

For SFQDILLRM [NS2_8–16], the results for the IC50 against H-2D^b (setting [2]) and against H-2K^b (setting [3]) were 10700 nM and 185 nM, respectively.

For VYIEVLHL [PB2-227-234Kb], the IC50 at H-2K^b (setting [4]) came to 2.77 nM.

Take MGLIYNRM [M1_128–135]: the 50% inhibitory concentration (IC50) at H-2D^b (setting [2]) was above 40000 nM; against H-2K^b (setting [3]) it was 92.6 nM.

For the compound HA-41-49 (VTVTHSVNL), the “CTL response, ICS” value is recorded as 14900.8 in the experiment on splenic CD8^+ T cells (Mouse1); 4695.13 with splenic CD8^+ T cells (Mouse2); 8913.09 in the experiment with splenic CD8^+ T cells (Mouse3); 22267.5 with splenic CD8^+ T cells (Mouse4); 32844.3 in the experiment on splenic CD8^+ T cells (Mouse5); 2884.36 in the experiment with splenic CD8^+ T cells (Mouse11). For the same compound, the “CTL response, ICS” value came to 3836.33 in the experiment on splenic CD8^+ T cells (Mouse12); 2696.15 in the experiment on splenic CD8^+ T cells (Mouse13); 546.324 in the experiment with splenic CD8^+ T cells (Mouse14); 0 with splenic CD8^+ T cells (Mouse15); 865.512 in the experiment with splenic CD8^+ T cells (Mouse16). In experiment [1], this compound gave a half-inhibitory concentration (IC50) of 872 nM.

As to 2 (TLTSANHA[Met(O)]I) [compound 2], the “IFNg#” value with splenic CD8^+ T cells (setting [5]) is 1002.82; in the experiment with splenic CD8^+ T cells (setting [6]) it was 6300.91; with splenic CD8^+ T cells (setting [7]), 49270.8; with splenic CD8^+ T cells (setting [8]), 453.913; in the experiment with splenic CD8^+ T cells (setting [9]) it was 8544.26; in the experiment with splenic CD8^+ T cells (setting [10]), -2541. In addition, the “IFNg#” value in the experiment on splenic CD8^+ T cells (setting [11]) is 765.09; with splenic CD8^+ T cells (setting [12]), 334.733; with splenic CD8^+ T cells (setting [13]) it was 3334.69; in the experiment with splenic CD8^+ T cells (setting [14]), 2635.85; in the experiment with splenic CD8^+ T cells (setting [15]), -650.348.

As for SGPDNGAVAV [NA181–190], the concentration for half-maximal inhibition (IC50) was found to be 65 nM on H-2D^b (setting [2]) and 262 nM against H-2K^b (setting [3]).

With LSLRNPILV [PB1-F2_62–70], the half-maximal inhibitory concentration (IC50) came out at 18 nM on H-2D^b (setting [2]) and 12400 nM against H-2K^b (setting [3]).

As for SSLPYQNI [HA304–311], the IC50 against H-2D^b (setting [2]) is above 40000 nM; at H-2K^b (setting [3]), 4.7 nM.

For AGLKNDLLENL [M1_227–237], the 50% inhibitory concentration (IC50) against H-2D^b (setting [2]) amounted to 5280 nM; against H-2K^b (setting [3]), 3310 nM.

In the case of IGRFYIQM [NP36–43], the IC50 against H-2D^b (setting [2]) was found to be 3300 nM; against H-2K^b (setting [3]), 1.9 nM.

As to NGITNKVNTVI [HA389–399], the half-maximal inhibitory concentration (IC50) at H-2D^b (setting [2]) was determined as 118 nM; against H-2K^b (setting [3]), 22000 nM.
